# Results reported in US20220313819A1, “COMBINATION THERAPY FOR THE TREATMENT OF SOLID AND HEMATOLOGICAL CANCERS” (Arch Oncology, Inc., priority 2019, published 2022).
# Tests used:
# [1] = tested on: RPMI-8226 tumors; assay: RPMI-8226 multiple myeloma xenograft in NSG mice; format: in vivo, mouse
# Excerpt: (§1) RPMI-8226 human multiple myeloma cells (ATCC #CCL-155, Manassas, Va.) were maintained in RPMI-1640 (Lonza; Walkersville, Md.) supplemented with 10% Fetal Bovine Serum (FBS; Omega Scientific; Tarzana, Calif.) and 1% Penicillin/Streptomycin (Corning, Manassas, Va.) within a 5% CO2 atmosphere. Cultures were expanded in tissue culture flasks.
# (§2) Female NSG (NOD-Cg-Prkdc^scidI12rg^tm1Wjl/SzJ) were obtained from Jackson Laboratory (Bar Harbor, Me.) at 5-6 weeks of age. Mice were acclimated prior to handling and housed in microisolator cages (Lab Products, Seaford, Del.) under specific pathogen-free conditions. Mice were fed Teklad Global Diet® 2920x irradiated laboratory animal diet (Envigo, Formerly Harlan; Indianapolis, Ind.) and provided autoclaved water ad libitum. All procedures were carried out under Institutional Animal Care and Use guidelines.
# Female NSG mice were inoculated subcutaneously in the right flank with 0.1 mL of a 30% RPMI/70% Matrigel™ (BD Biosciences; Bedford, Mass.) mixture containing a suspension of 1×10^7 RPMI-8226 tumor cells.
# (§3) The mean TS of each group was calculated and reported.
# Differences in Day 48 tumor volumes were confirmed using a one-way ANOVA, unpaired, parametric with the Tukey's Multiple Comparison test with Welch's correction. […]
# [2] = tested on: MM.1S tumors; assay: MM.1S multiple myeloma xenograft, combination with bortezomib; format: in vivo, mouse
# Excerpt: as §1, with “MM.1S” for “RPMI-8226”, “#CRL-2974,” for “#CCL-155,”
# as §2, §3
# All statistical analyses in the xenograft study were performed with Prism GraphPad® software.
# [3] = tested on: MM.1S tumors; assay: MM.1S multiple myeloma xenograft, combination with daratumumab; format: in vivo, mouse
# Experimental: as §1, with “The anti-tumor properties of a humanized anti-CD47 antibody (VLX9hum_06 IgG2) and in combination with anti-CD38 monoclonal antibody daratumumab which reduce tumor burden in a xenograft MM.1S multiple myeloma NSG mouse model were evaluated MM.1S” for “RPMI-8226”, “#CRL-2974,” for “#CCL-155,”
# as §2
# Female NSG mice were inoculated subcutaneously in the right flank with 0.1 mL of a 30% RPMI/70% Matrigel™ (BD Biosciences; Bedford, Mass.) mixture containing a suspension of 5×10^6 MM.1S tumor cells. […]
# Mean tumor growth inhibition (TGI) was calculated at Day 20 utilizing the following formula. […]
# [4] = tested on: Jurkat T ALL cell line; assay: ATP release; format: cell-based, human; details: mAb 10 μg/ml or mitoxantrone 1 μM, 24 hours
# Experimental: Release of ATP from the tumor cell is determined by quantitative bioluminescence assay as described by the manufacturer (Molecular Probes; Catalogue #A22066).
# The humanized antibodies (VLX4hum_01 IgG4PE, VLX4hum_07 IgG4PE, VLX8hum_11 IgG4PE, VLX9hum_06 IgG2, VLX9hum_08 IgG2 and VLX9hum_03) as disclosed herein, purified from transient transfections in CHO cells as described above, as well as the control chimeric antibody, were added at a final concentration of 10 μg/ml. As a positive control for ATP release, cells were treated with 1 μM of chemotherapeutic anthracycline mitoxantrone. The cells were incubated at 37° C. for 24 hours, after which the cell-free supernatant was collected and stored at −80° C. After all samples have been collected, 10 μl of each sample was tested by the ATP determination kit as described above. […] Results are presented as means SEM and analyzed for statistical significance using ANOVA in GraphPad Prism 6.
# [5] = tested on: MM.1S tumors; assay: MM.1S xenograft in NOD-SCID mice, combination with lenalidomide or pomalidomide; format: in vivo, mouse; details: for complete tumor regression: N=9/group; for tumor growth inhibition (TGI): mAb 25 mg/kg IP weekly
# Excerpt: MM.1S human multiple myeloma cells (ATCC #CRL-2974, Manassas, Va.) were maintained in RPMI-1640 (Lonza; Walkersville, Md.) supplemented with 10% Fetal Bovine Serum (FBS; Omega Scientific; Tarzana, Calif.) and 1% Penicillin/Streptomycin (Corning, Manassas, Va.) within a 5% CO2 atmosphere. Cultures were expanded in tissue culture flasks. Female NOD-SCID (NOD.CB17-Prkdc^scid/J) mice were obtained from Jackson Laboratory (Bar Harbor, Me.) at 5-6 weeks of age. Mice were acclimated prior to handling and housed in microisolator cages (Lab Products, Seaford, Del.) under specific pathogen-free conditions. Mice were fed Teklad Global Diet® 2920x irradiated laboratory animal diet (Envigo, Formerly Harlan; Indianapolis, Ind.) and provided autoclaved water ad libitum. All procedures were carried out under Institutional Animal Care and Use guidelines.
# Female NOD-SCID mice were inoculated subcutaneously in the right flank with 0.1 mL of a 50% RPMI-1640/50% Matrigel™ (BD Biosciences; Bedford, Mass.) mixture containing a suspension of 5×10^6 MM.1S tumor cells. When tumors reached volumes of approximately 50-100 mm^3, mice were randomized. The test articles, human IgG2 (hIgG2), anti-CD47 mAb (VLX9hum_06 IgG2) were administered by intraperitoneal (IP) injection and lenalidomide or pomalidomide (LC Labs, Woburn, Mass.) were administered by oral gavage (PO). hIgG2 (25 mg/kg) or an anti-CD47 mAb VLX9hum_06 IgG2 (25 mg/kg) were administered weekly for 5 weeks, while lenalidomide (25 mg/kg) or pomalidomide (10 mg/kg) were administered on 4 successive days, with 3 days off, weekly for 5 weeks.
# Mean tumor growth inhibition (TGI) was calculated at Day 24 (the final day all mice were on study) utilizing the following formula.
# All statistical analyses in the xenograft study were performed with Prism GraphPad® software. Differences in Day 24 tumor volumes were confirmed using a two-way ANOVA, unpaired, parametric with the Tukey's Multiple Comparison test with Welch's correction.
# [6] = tested on: OV90 tumors; assay: OV90 ovarian carcinoma xenograft in NSG mice; format: in vivo, mouse; details: OV90, Day 52; antibody 10 mg/kg IP QD5×6, cisplatin 5 mg/kg, paclitaxel 20 mg/kg
# Experimental: Female NSG mice (NOD-Cg-PrkdcscidI12rgtm1Wjl/SzJ, Jackson Laboratories) were inoculated subcutaneously in the right flank with 0.1 mL of a 30% RPMI/70% Matrigel™ (BD Biosciences; Bedford, Mass.) mixture containing a suspension of 5×10^6 OV90 ovarian carcinoma cells (ATCC). Digital calipers were used to measure width and length diameters of the tumor. Tumor volumes were calculated utilizing the formula: tumor volume (mm^3)=(a×b^2/2) where ‘b’ is the smallest diameter and ‘a’ is the largest diameter. Mice with palpable tumor volumes of 50-100 mm^3 were randomized into 10 mice/group. […] Tumor volumes and body weights were recorded twice weekly.
# [7] = tested on: SNU-1 tumors; assay: SNU-1 gastric carcinoma xenograft in NSG mice; format: in vivo, mouse; details: antibody 25 mg/kg IP Q7D×5, cisplatin 3 mg/kg Q7D×4
# Experimental: Female NSG mice (NOD-Cg-PrkdcscidI12rgtm1Wjl/SzJ, Jackson Laboratories) were inoculated subcutaneously in the right flank with 0.1 mL of a 30% RPMI/70% Matrigel™ (BD Biosciences; Bedford, Mass.) mixture containing a suspension of 5×10^6 SNU-1 gastric carcinoma cells (ATCC). Eight days following inoculation, digital calipers were used to measure width and length diameters of the tumor. Tumor volumes were calculated utilizing the formula: tumor volume (mm^3)=(a×b^2/2) where ‘b’ is the smallest diameter and ‘a’ is the largest diameter. Mice with palpable tumor volumes of 50-100 mm^3 were randomized into 10 mice/group and administered anti-CD47 mAb VLX9hum_06 IgG2, cisplatin, control IgG2, or a combination of anti-CD47 mAb VLX9hum_06 IgG2 with cisplatin. Mice were treated with 25 mg/kg of antibody once a week for 5 weeks (Q7D×5) by intraperitoneal injection (IP) and/or with 3 mg/kg of cisplatin once weekly for 4 weeks (Q7D×4). Tumor volumes and body weights were recorded twice weekly.
# Mean tumor growth inhibition (TGI) was calculated utilizing the following formula.
# Significant differences in tumor volume were confirmed using a two-way ANOVA, unpaired, parametric with the Tukey's Multiple Comparison test.
compound,measurement,setting,value
CC(C)C[C@H](NC(=O)[C@H](Cc1ccccc1)NC(=O)c1cnccn1)B(O)O [bortezomib],median survival,"[1]; RPMI-8226, 1 mg/kg",78 days
same,tumor growth inhibition (TGI),"[1]; RPMI-8226, Day 48, 1 mg/kg IV Day 1, 4, 12",96%
same,median survival,[2],35 days
same,tumor growth inhibition (TGI),"[2]; Day 20, mAb 25 mg/kg IP weekly, bortezomib 0.75 then 0.5 mg/kg IV",91.8%
daratumumab: anti-CD38 monoclonal antibody,median survival,[3],29 days
same,tumor growth inhibition (TGI),"[3]; Day 20, mAb 25 mg/kg weekly, daratumumab 15 mg/kg twice weekly",54%
O=C1c2c(O)ccc(O)c2C(=O)c2c(NCCNCCO)ccc(NCCNCCO)c21 [mitoxantrone],amount of released ATP,[4],did not (ns)
Nc1cccc2c1CN(C1CCC(=O)NC1=O)C2=O (centres unmarked) [lenalidomide],complete tumor regression,[5]; FIG. 91A,no tumor regressions
same,tumor growth inhibition (TGI),"[5]; day 24, FIG. 91A, lenalidomide 25 mg/kg PO",48%
CC(=O)O[C@H]1C(=O)[C@@]2(C)[C@H]([C@H](OC(=O)c3ccccc3)[C@]3(O)C[C@H](OC(=O)[C@H](O)[C@@H](NC(=O)c4ccccc4)c4ccccc4)C(C)=C1C3(C)C)[C@]1(OC(C)=O)CO[C@@H]1C[C@@H]2O [paclitaxel],tumor growth inhibition (TGI),[6],32.1%
N.N.[Cl][Pt][Cl] [cisplatin],tumor growth inhibition (TGI),[7],39.7%
same,tumor growth inhibition (TGI),[6],53.1%
Nc1cccc2c1C(=O)N(C1CCC(=O)NC1=O)C2=O (centres unmarked) [pomalidomide],complete tumor regression,[5]; FIG. 91B,no tumor regressions
same,tumor growth inhibition (TGI),"[5]; day 24, FIG. 91B, pomalidomide 10 mg/kg PO",23%
